The values that follow come from patent publication US12281122B1, “PI3K inhibitors” (Cogent Biosciences, Inc., priority 2023, dated 2025).

For assay [1], the system named is SKBR3 (PI3Kα-Wild Type) cell line. In words: HTRF phospho-AKT(S473) cell assay in SKBR3 cells. It is filed as cell-based, human. To be noted: Homo sapiens, SK-BR-3; HTRF phospho-AKT(S473), SKBR3 (PI3Kα-Wild Type) cells, 2 hours compound incubation, PDGF-BB stimulated. An outline of the steps:
(§1)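 T47D: RPMI + 10% FBS + 0.2 units/mL insulin, top 5 μM. SKBR3: McCoy's 5A + 10% FBS, top 10 μM, 70 ng/ml PDGF-BB last 15 min. Both: 12-pt 1:3, 2 h, 37° C, max 0.5% DMSO; HTRF pAKT(S473); IC50.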
A general note: In TR-FRET formats the signal depends on donor and acceptor labels being close together.

Assay [2] relates to T47D (PI3Kα-H1047R) cell line. As to the kind of experiment: HTRF phospho-AKT(S473) cell assay in T47D cells. The assay is classed as cell-based, human. As to conditions: Homo sapiens; HTRF phospho-AKT(S473), T47D (PI3Kα-H1047R) cells, 2 hours compound incubation. In a few lines:
as §1

SMILES strings stand for the structures.

Turning to `Cc1cc([C@@H](C)Nc2ccc(Cl)nc2C(=O)NS(C)(=O)=O)c2nc(-c3ccc4c(cnn4CC(F)(F)F)c3)n(C)c(=O)c2c1` [Compound 783, (R)-6-chloro-3-((1-(3,6-dimethyl-4-oxo-2-(1-(2,2,2-trifluoroethyl)-1H-indazol-5-yl)-3,4-dihydroquinazolin-8-yl)ethyl)amino)-N-(methylsulfonyl) picolinamide], the 50% inhibitory concentration (IC50) (in general, the concentration that gives 50% inhibition) was 1 to 5 µM in assay [1] and below 0.25 µM in assay [2].

For `Cc1cc([C@@H](C)Nc2ccc(Cl)nc2C(=O)NS(C)(=O)=O)c2nc(-c3ccc4nn(CC(F)(F)F)cc4c3)n(C)c(=O)c2c1` [Compound 784, (R)-6-chloro-3-((1-(3,6-dimethyl-4-oxo-2-(2-(2,2,2-trifluoroethyl)-2H-indazol-5-yl)-3,4-dihydroquinazolin-8-yl)ethyl)amino)-N-(methylsulfonyl) picolinamide], the figures for the IC50 in assay [1] and in assay [2] were 1 to 5 µM and below 0.25 µM, respectively.

Regarding `CC(=O)N1CCN(c2ccc(-c3nc4c([C@@H](C)Nc5ccc(Cl)nc5C(=O)NS(C)(=O)=O)cc(C)cc4c(=O)n3C)c(F)c2)CC1` [Compound 785, (R)-3-((1-(2-(4-(4-acetylpiperazin-1-yl)-2-fluorophenyl)-3,6-dimethyl-4-oxo-3,4-dihydroquinazolin-8-yl)ethyl)amino)-6-chloro-N-(methylsulfonyl) picolinamide], the IC50 in assay [1] was 1 to 5 µM; in assay [2], below 0.25 µM.

For `CC(=O)N1CCC(c2ccc(-c3nc4c([C@@H](C)Nc5ccc(Cl)nc5C(=O)NS(C)(=O)=O)cc(C)cc4c(=O)n3C)cc2F)CC1` [Compound 786, (R)-3-((1-(2-(4-(1-acetylpiperidin-4-yl)-3-fluorophenyl)-3,6-dimethyl-4-oxo-3,4-dihydroquinazolin-8-yl)ethyl)amino)-6-chloro-N-(methylsulfonyl) picolinamide], the results for the IC50 in assay [1] and in assay [2] were 1 to 5 µM and below 0.25 µM, respectively.

As to `Cc1cc([C@@H](C)Nc2ccc(Cl)nc2C(=O)NS(C)(=O)=O)c2nc(-c3ccc(-c4ccn(C)n4)c(F)c3)n(C)c(=O)c2c1` [Compound 787, (R)-6-chloro-3-((1-(2-(3-fluoro-4-(1-methyl-1H-pyrazol-3-yl)phenyl)-3,6-dimethyl-4-oxo-3,4-dihydroquinazolin-8-yl)ethyl)amino)-N-(methylsulfonyl) picolinamide], the IC50 in assay [1] was 1 to 5 µM; in assay [2], below 0.25 µM.

Turning to `Cc1cc([C@@H](C)Nc2ccc(Cl)nc2C(=O)NS(C)(=O)=O)c2nc(-c3cc(F)c4nn(C)cc4c3)n(C)c(=O)c2c1` [Compound 788, (R)-6-chloro-3-((1-(2-(7-fluoro-2-methyl-2H-indazol-5-yl)-3,6-dimethyl-4-oxo-3,4-dihydroquinazolin-8-yl)ethyl)amino)-N-(methylsulfonyl) picolinamide], the IC50 in assay [1] was 1 to 5 µM; in assay [2], below 0.25 µM.

With `Cc1cc([C@@H](C)Nc2ccc(Cl)nc2C(=O)NS(C)(=O)=O)c2nc(-c3ccc4nc(C)oc4c3)n(C)c(=O)c2c1` [Compound 789, (R)-6-chloro-3-((1-(3,6-dimethyl-2-(2-methylbenzo[d]oxazol-6-yl)-4-oxo-3,4-dihydroquinazolin-8-yl)ethyl)amino)-N-(methylsulfonyl) picolinamide], the figures for the IC50 in assay [1] and in assay [2] were 1 to 5 µM and below 0.25 µM, respectively.

Consider `Cc1cc([C@@H](C)Nc2ccc(Cl)nc2C(=O)NS(C)(=O)=O)c2nc(-c3ccc(N4CCN(C)CC4)cc3)n(C)c(=O)c2c1` [Compound 790, (R)-6-chloro-3-((1-(3,6-dimethyl-2-(4-(4-methylpiperazin-1-yl)phenyl)-4-oxo-3,4-dihydroquinazolin-8-yl)ethyl)amino)-N-(methylsulfonyl) picolinamide], for which the figures for the half-maximal inhibitory concentration (IC50) in assay [1] and in assay [2] were at least 5 µM and below 0.25 µM, respectively.

As for `COCCn1ncc2cc(-c3nc4c([C@@H](C)Nc5ccc(Cl)nc5C(=O)NS(C)(=O)=O)cc(C)cc4c(=O)n3C)ccc21` [Compound 791, (R)-6-chloro-3-((1-(2-(1-(2-methoxyethyl)-1H-indazol-5-yl)-3,6-dimethyl-4-oxo-3,4-dihydroquinazolin-8-yl)ethyl)amino)-N-(methylsulfonyl) picolinamide], the values for the IC50 in assay [1] and in assay [2] were 1 to 5 µM and below 0.25 µM, respectively.

`Cc1cc([C@@H](C)Nc2ccc(Cl)nc2C(=O)NS(C)(=O)=O)c2nc(-c3ccc4nn(C5COC5)cc4c3)n(C)c(=O)c2c1` [Compound 792, (R)-6-chloro-3-((1-(3,6-dimethyl-2-(2-(oxetan-3-yl)-2H-indazol-5-yl)-4-oxo-3,4-dihydroquinazolin-8-yl)ethyl)amino)-N-(methylsulfonyl) picolinamide]: the concentration for half-maximal inhibition (IC50) was 1 to 5 µM in assay [1] and below 0.25 µM in assay [2].

As for `Cc1cc([C@@H](C)Nc2ccc(Cl)nc2C(=O)NS(C)(=O)=O)c2nc(-c3ccc(OCCN4CCOCC4)cc3)n(C)c(=O)c2c1` [Compound 793, (R)-6-chloro-3-((1-(3,6-dimethyl-2-(4-(2-morpholinoethoxy)phenyl)-4-oxo-3,4-dihydroquinazolin-8-yl)ethyl)amino)-N-(methylsulfonyl) picolinamide], the results for the IC50 in assay [1] and in assay [2] were at least 5 µM and below 0.25 µM, respectively.

`Cc1cc([C@@H](C)Nc2ccc(Cl)nc2C(=O)NS(C)(=O)=O)c2nc(-c3ccc(-c4cnn(C)c4)c(F)c3)n(C)c(=O)c2c1` [Compound 794, (R)-6-chloro-3-((1-(2-(3-fluoro-4-(1-methyl-1H-pyrazol-4-yl)phenyl)-3,6-dimethyl-4-oxo-3,4-dihydroquinazolin-8-yl)ethyl)amino)-N-(methylsulfonyl) picolinamide]: the IC50 in assay [1] is 1 to 5 µM; in assay [2], below 0.25 µM.

On to `Cc1cc([C@@H](C)Nc2ccc(Cl)nc2C(=O)NS(C)(=O)=O)c2nc(-c3ccc4nn(CC5CC5)cc4c3)n(C)c(=O)c2c1` [Compound 795, (R)-6-chloro-3-((1-(2-(2-(cyclopropylmethyl)-2H-indazol-5-yl)-3,6-dimethyl-4-oxo-3,4-dihydroquinazolin-8-yl)ethyl)amino)-N-(methylsulfonyl) picolinamide], for which the IC50 in assay [1] is 1 to 5 µM; in assay [2], below 0.25 µM.

Consider `Cc1cc([C@@H](C)Nc2ccc(Cl)nc2C(=O)NS(C)(=O)=O)c2nc(-c3ccc4c(c3)CN(C)C4=O)n(C)c(=O)c2c1` [Compound 796, (R)-6-chloro-3-((1-(3,6-dimethyl-2-(2-methyl-1-oxoisoindolin-5-yl)-4-oxo-3,4-dihydroquinazolin-8-yl)ethyl)amino)-N-(methylsulfonyl) picolinamide], for which the IC50 in assay [1] is 1 to 5 µM; in assay [2] it was below 0.25 µM.

Consider `Cc1cc([C@@H](C)Nc2ccc(Cl)nc2C(=O)NS(C)(=O)=O)c2nc(-c3ccc4nn(CCO)cc4c3)n(C)c(=O)c2c1` [Compound 797, (R)-6-chloro-3-((1-(2-(2-(2-hydroxyethyl)-2H-indazol-5-yl)-3,6-dimethyl-4-oxo-3,4-dihydroquinazolin-8-yl)ethyl)amino)-N-(methylsulfonyl) picolinamide], for which the IC50 in assay [1] is 1 to 5 µM; in assay [2], below 0.25 µM.

As to `Cc1cc([C@@H](C)Nc2ccc(Cl)nc2C(=O)NS(C)(=O)=O)c2nc(-c3ccc4nn(C)cc4c3C)n(C)c(=O)c2c1` [Compound 798, (R)-6-chloro-3-((1-(2-(2,4-dimethyl-2H-indazol-5-yl)-3,6-dimethyl-4-oxo-3,4-dihydroquinazolin-8-yl)ethyl)amino)-N-(methylsulfonyl) picolinamide], the IC50 was 1 to 5 µM in assay [1] and below 0.25 µM in assay [2].

As to `Cc1cc([C@@H](C)Nc2ccc(Cl)nc2C(=O)NS(C)(=O)=O)c2nc(-c3ccc(-c4ncc(C#N)cc4C)c(F)c3)n(C)c(=O)c2c1` [Compound 799, (R)-6-chloro-3-((1-(2-(4-(5-cyano-3-methylpyridin-2-yl)-3-fluorophenyl)-3,6-dimethyl-4-oxo-3,4-dihydroquinazolin-8-yl)ethyl)amino)-N-(methylsulfonyl) picolinamide], the results for the IC50 in assay [1] and in assay [2] were at least 5 µM and 0.25 to 0.5 µM, respectively.

As for `CC(=O)N1CCN(c2cc(F)c(-c3nc4c([C@@H](C)Nc5ccc(Cl)nc5C(=O)NS(C)(=O)=O)cc(C)cc4c(=O)n3C)cc2F)CC1` [Compound 800, (R)-3-((1-(2-(4-(4-acetylpiperazin-1-yl)-2,5-difluorophenyl)-3,6-dimethyl-4-oxo-3,4-dihydroquinazolin-8-yl)ethyl)amino)-6-chloro-N-(methylsulfonyl) picolinamide], the IC50 in assay [1] is 1 to 5 µM; in assay [2], below 0.25 µM.

In the case of `CC(=O)N1CC2CCC(C1)N2c1ccc(-c2nc3c([C@@H](C)Nc4ccc(Cl)nc4C(=O)NS(C)(=O)=O)cc(C)cc3c(=O)n2C)cc1F` [Compound 801, 3-(((1R)-1-(2-(4-(3-acetyl-3,8-diazabicyclo[3.2.1]octan-8-yl)-3-fluorophenyl)-3,6-dimethyl-4-oxo-3,4-dihydroquinazolin-8-yl)ethyl)amino)-6-chloro-N-(methylsulfonyl) picolinamide], the IC50 is at least 5 µM in assay [1] and below 0.25 µM in assay [2].

Regarding `Cc1cc([C@@H](C)Nc2ccc(Cl)nc2C(=O)NS(C)(=O)=O)c2nc(-c3ccc(-c4cn(C)cn4)cc3)n(C)c(=O)c2c1` [Compound 802, (R)-6-chloro-3-((1-(3,6-dimethyl-2-(4-(1-methyl-1H-imidazol-4-yl)phenyl)-4-oxo-3,4-dihydroquinazolin-8-yl)ethyl)amino)-N-(methylsulfonyl) picolinamide], the IC50 was 1 to 5 µM in assay [1] and below 0.25 µM in assay [2].
